{"source": "patent US9957214B2", "about": "“Multifunctional radical quenchers” (ARIZONA BOARD OF REGENTS ON BEHALF OF ARIZONA STATE …, priority 2012, dated 2018)", "key": {"[1]": {"system": "BT474 cell line and FRDA lymphocytes", "test": "Cytotoxicity assay (WST-1)", "type": "cell-based, human", "conditions": "48 h, varying concentrations", "description": "FIG. 5. Effect of compound 40 and geldanamycin on cell viability was compared to vehicle (DMSO) after treatment with varying concentrations for 48 h in BT474 cell line and FRDA lymphocytes, respectively. Each measurement is an average of three independent experiments run in quartet.\n[…] geldanamycin were tested for their cytotoxicity in human breast cancer cell line BT474 and FRDA lymphocytes using the vital mitochondrial function assay WST-1 Kit (Roche Diagnostics). BT474 cells (2000 cell/well) and FRDA lymphocytes (5000 cell/well) (100 μl) were seeded in 96-well plates and incubated for 48 h. Compound 40 or geldanamycin at varying concentrations were added and the plates were returned to the incubator for 48 h. Cell viability was determined using a WST-1 Kit (Roche Diagnostics) following the manufacturer's instructions. WST-1 reagent (10 μL) was added to each well, containing 200 μL media and further incubation for 2 h (BT474) and 4 h (FRDA lymphocytes). Color intensity was measured at 450 nm using a SpectraMax M5 microplate reader (Molecular Devices, Sunnyvale, Calif., USA). Results are expressed as percentage of viable cells relative to untreated control after subtracting background. Data are expressed as means±S.E.M. (n=3)."}, "[2]": {"test": "Lipid peroxidation induced by AAPH peroxyl radicals in phospholipid liposomes (C11-BODIPY581/591 fluorescence)", "conditions": "10 mM AAPH, phosphate buffer, 40° C.; compared with tocopherol", "description": "FIG. 4. Effect of nitrogen-containing 3-alkyl-1,4-benzoquinone derivatives on lipid peroxidation induced by peroxyl radicals generated from thermal decomposition of AAPH in phospholipid liposomes in phosphate buffer at 40° C. […] Relative fluorescence units are normalized to 100% intensity.\nSeveral methods for assaying lipid peroxidation in vitro have been developed (Kuypers et al. (1987) Biochim Biophys Acta. 25, 266-274; Pap et al. (1999) FEBS Lett. 453, 278-282; Drummen et al. (2002) Free RadicBiol Med. 33, 473-490). Almost all of these methods are based on inhibition of free radical-induced oxidation reactions. A widely used fluorescence assay for lipid peroxidation uses lipid soluble cis-parinaric acid as a probe. cis-parinaric acid loses its fluorescence (λexc/em: 320/432 nm) upon interaction with peroxyl radicals and retains its fluorescence in the presence of radical quenchers. cis-parinaric acid is, however, air sensitive, photolabile and absorbs light in the UV region of the spectrum (at ˜320 nm). […] C11-BODIPY^581/591 (Molecular Probes, Eugene, Oreg., USA) stock solution concentrations were determined by measuring the absorption of C11-BODIPY^581/591 at 582 nm using a molar extinction coefficient of 140,000 mol^−1 cm^−1 (R. P. Haugland, (1999) Handbook of Fluorescent Probes and Research Chemicals, Molecular Probes, Inc., Eugene, Oreg.). […]"}}, "data": [{"smiles": "COC1=C2CCCCCCCCCCCCCCCNC(=CC1=O)C2=O", "note": "[Compound 40]", "values": [{"measurement": "Cytotoxicity (in words)", "setting": "[1]", "value": "no cytotoxicity"}]}, {"smiles": "CCCCCCCCCCCCCC1=C(OC)C(=O)C=C(NCCCC(=O)OCCCCCC)C1=O", "note": "[Compound 18, Hexyl 4-(4-methoxy-3,6-dioxo-5-tridecylcyclohexa-1,4-dienylamino)butanoate]", "values": [{"measurement": "Protection against lipid peroxidation in liposomes (in words)", "setting": "[2]", "value": "significant protection against lipid peroxidation"}]}]}
